21 compounds from US10543212B2, “Substituted amines for treating cardiac diseases” (Cardurion Pharmaceuticals, LLC, priority 2017, dated 2020) can be followed below.

As a reminder, the IC50 is the point on the concentration scale where inhibition reaches its midpoint. Low readings indicate inhibition by little substance, high ones a need for much substance.

In one assay the target is T1, Full-length, GST-tagged, human CaMKIIδ (Homo sapiens, UniProt Q13557).
T1 construct: Full-Length, Glutathione-S-Transferase(GST)-Tagged, Human CaMKIIδ was purchased from Carna Biosciences; purchased Carna Biosciences 02-111
T1 sequence (Q13557 1-478 isoform Q13557-12): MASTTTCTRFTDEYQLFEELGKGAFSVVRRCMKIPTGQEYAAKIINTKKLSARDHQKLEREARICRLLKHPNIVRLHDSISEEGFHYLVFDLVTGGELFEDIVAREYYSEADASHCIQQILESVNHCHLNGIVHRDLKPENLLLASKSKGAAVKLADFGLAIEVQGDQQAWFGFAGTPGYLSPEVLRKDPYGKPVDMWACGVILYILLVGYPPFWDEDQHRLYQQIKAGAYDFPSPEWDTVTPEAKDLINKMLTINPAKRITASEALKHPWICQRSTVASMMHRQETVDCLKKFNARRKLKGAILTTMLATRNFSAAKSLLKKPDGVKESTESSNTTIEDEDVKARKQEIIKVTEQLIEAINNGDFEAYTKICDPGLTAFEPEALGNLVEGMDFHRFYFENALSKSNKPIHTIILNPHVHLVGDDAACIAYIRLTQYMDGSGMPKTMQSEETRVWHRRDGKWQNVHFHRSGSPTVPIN
Briefly: CaMKIIδ binding assay (TR-FRET with BODIPY-labeled probe ligand). As to conditions: CaMKIIδ binding assay, results of Table 2. The method, then:
In vitro CaMKIIδ inhibitory activity was evaluated by a binding assay.
Full-Length, Glutathione-S-Transferase(GST)-Tagged, Human CaMKIIδ was purchased from Carna Biosciences (product #02-111, Kobe, Japan). Full-length bovine calmodulin was purchased from Wako Pure Chemical Industries (Osaka, Japan). Terbium-labeled anti-GST antibody (Tb-anti-GST Ab) was purchased from Life Technologies (Carlsbad, Calif., USA). Boron-dipyrromethene (BODIPY)-labeled probe ligand was synthesized as described below.
Time-Resolved Fluorescence Resonance Energy Transfer (TR-FRET) Assay
All assays were conducted using 384-well, white, flat-bottomed plates (product #784075, Greiner Bio-One, Frickenhausen, Germany) in kinase assay buffer, which consists of 50 mM HEPES pH 7.6, 10 mM MgCl2, 1 mM EGTA, 0.01% Brig-35, 0.1 mM DTT). The fluorescent probe ligand was added at a final concentration of 300 nM to solutions containing 0.21 nM Tb-anti-GST Ab, 1 mM CaCl2), 10 μg/mL calmodulin, and 0.5 nM GST-tagged CaMKIIδ. After shaded incubation of the protein-probe mixture on ice for 30 min, the premix was dispensed in the assay plate including test inhibitors with 4 fold dilution series of eight concentrations. After 1 hr incubation at room temperature, TR-FRET signals were measured in duplicate using an EnVision microplate reader (Perkin Elmer, Waltham, Mass., USA). The solution in each well was excited with a laser (λ=340 nm) reflected by a dichroic mirror (D400/D505 (Perkin Elmer) through an excitation filter (UV (TRF) 340, (Perkin Elmer)), and fluorescence from Tb and BODIPY were detected through two emission filters (CFP 495 (Perkin Elmer) for Tb, Emission 520 (Perkin Elmer) for BODIPY).
The percentage of inhibition of test compounds was calculated according to equation (1) Inhibition (%)=100×([…]−T)/(μH−μL) (1)
Where T is the value of the wells containing test compounds and μH and μL are the mean values of the 0% and 100% inhibition control wells, respectively. The values of the 0 and 100% controls were the signals obtained in the absence and presence of 3 μM its parent compound, respectively. The half maximal inhibitory concentration (IC50) of test compounds was calculated by fitting the data with the logistic equation using XLfit (IDBS, Guildford, UK). The IC50 was classified according to the following activity ranks.
Background: TR-FRET usually uses a lanthanide donor and a delayed reading to cut background.
In turn, `COc1ccc(C(=O)N2CCN(C)CC2)cc1Nc1ncc(-c2ccc(Cl)c(O[C@@H](C)Cn3cnnn3)c2)cn1` [Example 569, (S)-(3-((5-(3-((1-(1H-tetrazol-1-yl)propan-2-yl)oxy)-4-chlorophenyl)pyrimidin-2-yl)amino)-4-methoxyphenyl) (4-methylpiperazin-1-yl)methanone] yielded a 50% inhibitory concentration (IC50) of less than 10 nM.
`C[C@@H](Cn1cnnn1)Oc1cc(-c2cnc(Nc3cc(N4CCC(N5CCOCC5)CC4)ncc3OC(F)(F)F)nc2)ccc1C#N` [Example 543, (S)-2-((1-(1H-tetrazol-1-yl)propan-2-yl)oxy)-4-(2-((2-(4-morpholinopiperidin-1-yl)-5-(trifluoromethoxy)pyridin-4-yl)amino)pyrimidin-5-yl)benzonitrile]: the half-maximal inhibitory concentration (IC50) is less than 10 nM.
`COc1ccc(N2CCN(CC(N)=O)CC2)cc1Nc1ncc(-c2ccc(Cl)c(O[C@@H](C)Cn3cnnn3)c2)cn1` [Example 579, (S)-2-(4-(3-((5-(3-((1-(1H-tetrazol-1-yl)propan-2-yl)oxy)-4-chlorophenyl)pyrimidin-2-yl)amino)-4-methoxyphenyl)piperazin-1-yl)acetamide] gave an IC50 of less than 10 nM.
As to `COc1ccc(C(=O)N2CCCN(C)CC2)cc1Nc1ncc(-c2ccc(Cl)c(O[C@@H](C)Cn3cnnn3)c2)cn1` [Example 544, (S)-(3-((5-(3-((1-(1H-tetrazol-1-yl)propan-2-yl)oxy)-4-chlorophenyl)pyrimidin-2-yl)amino)-4-methoxyphenyl) (4-methyl-1,4-diazepan-1-yl)methanone], the IC50 is less than 10 nM.
On the same count and under the same terms, the figure for `COc1cc2c(cc1Nc1ncc(-c3ccc(Cl)c(O[C@@H](C)Cn4cnnn4)c3)cn1)CN(C1COC1)CCC2` [Example 467, (S)-N-(5-(3-((1-(1H-tetrazol-1-yl)propan-2-yl)oxy)-4-chlorophenyl)pyrimidin-2-yl)-7-methoxy-2-(oxetan-3-yl)-2,3,4,5-tetrahydro-1H-benzo[c]azepin-8-amine] is 10 to 100 nM; for `COC(=O)c1ccc(OC)c(Nc2ncc(-c3ccc(Cl)c(O[C@@H](C)Cn4cnnn4)c3)cn2)c1` [Example 526, methyl (S)-3-((5-(3-((1-(1H-tetrazol-1-yl)propan-2-yl)oxy)-4-chlorophenyl)pyrimidin-2-yl)amino)-4-methoxybenzoate] it is 10 to 100 nM.

The assay is the same for the next values; noted with them: CaMKIIδ binding assay; activity class per Table 2.
Consider `CO[C@H]1CC[C@H](N2CC3(CC(n4cc(Nc5ncc(-c6ccc(Cl)c(O[C@@H](C)Cn7cnnn7)c6)cn5)c(C(C)C)n4)C3)C2)CC1` [Example 980, 5-(3-(((S)-1-(1H-tetrazol-1-yl)propan-2-yl)oxy)-4-chlorophenyl)-N-(3-isopropyl-1-(2-((1r,4r)-4-methoxycyclohexyl)-2-azaspiro[3.3]heptan-6-yl)-1H-pyrazol-4-yl)pyrimidin-2-amine], for which the IC50 is less than 10 nM.
With `CC(C)c1nn(C2CC3(CNC3)C2)cc1Nc1ncc(-c2ccc(Cl)c(O[C@@H](C)Cn3cnnn3)c2)cn1` [Example 934, (S)-5-(3-((1-(1H-tetrazol-1-yl)propan-2-yl)oxy)-4-chlorophenyl)-N-(3-isopropyl-1-(2-azaspiro[3.3]heptan-6-yl)-1H-pyrazol-4-yl)pyrimidin-2-amine], the IC50 was less than 10 nM.
`C[C@@H](Cn1cnnn1)Oc1cc(-c2cnc(Nc3cn(CC4(O)CCN(C)CC4)nc3OCC(F)(F)F)nc2)ccc1Cl` [Example 910, (S)-4-((4-((5-(3-((1-(1H-tetrazol-1-yl)propan-2-yl)oxy)-4-chlorophenyl)pyrimidin-2-yl)amino)-3-(2,2,2-trifluoroethoxy)-1H-pyrazol-1-yl)methyl)-1-methylpiperidin-4-ol] gave an IC50 of less than 10 nM.
In the case of `C[C@@H](Cn1cnnn1)Oc1cc(-c2cnc(Nc3cn(C(C)(C)CO)nc3OCC(F)(F)F)nc2)ccc1Cl` [Example 883, (S)-2-(4-((5-(3-((1-(1H-tetrazol-1-yl)propan-2-yl)oxy)-4-chlorophenyl)pyrimidin-2-yl)amino)-3-(2,2,2-trifluoroethoxy)-1H-pyrazol-1-yl)-2-methylpropan-1-ol], the half-maximal inhibitory concentration (IC50) was less than 10 nM.

The same assay, now with this note: Table 2; CaMKIIδ binding assay, activity given as class A/B/C.
For the compound `C[C@@H](Cn1cnnn1)Oc1cc(-c2cnc(Nc3cn([C@H]4CC[C@H](N5CC(C)(O)C5)CC4)nc3OCC(F)(F)F)nc2)ccc1Cl` [Example 802, 1-(trans-4-(4-((5-(3-(((S)-1-(1H-tetrazol-1-yl)propan-2-yl)oxy)-4-chlorophenyl)pyrimidin-2-yl)amino)-3-(2,2,2-trifluoroethoxy)-1H-pyrazol-1-yl)cyclohexyl)-3-methylazetidin-3-ol], the half-inhibitory concentration (IC50) was less than 10 nM.
`C[C@@H](Cn1cnnn1)Oc1cc(-c2cnc(Nc3cn(C4CCC(=O)CC4)nc3OCC(F)F)nc2)ccc1Cl` [Example 800, (S)-4-(4-((5-(3-((1-(1H-tetrazol-1-yl)propan-2-yl)oxy)-4-chlorophenyl)pyrimidin-2-yl)amino)-3-(2,2-difluoroethoxy)-1H-pyrazol-1-yl)cyclohexan-1-one] showed an IC50 of less than 10 nM.
Take `C[C@@H](Cn1cnnn1)Oc1cc(-c2cnc(Nc3cn([C@H]4CC[C@H](N5CCC5)CC4)nc3C(F)(F)F)nc2)ccc1Cl` [Example 779, 5-(3-(((S)-1-(1H-tetrazol-1-yl)propan-2-yl)oxy)-4-chlorophenyl)-N-(1-(trans-4-(azetidin-1-yl)cyclohexyl)-3-(trifluoromethyl)-1H-pyrazol-4-yl)pyrimidin-2-amine]: the IC50 was less than 10 nM.
Compound `C[C@@H](Cn1cnnn1)Oc1cc(-c2cnc(Nc3cn(C4CCN(C5CC5)CC4)nc3OCC(F)(F)F)nc2)ccc1Cl` [Example 794, (S)-5-(3-((1-(1H-tetrazol-1-yl)propan-2-yl)oxy)-4-chlorophenyl)-N-(1-(1-cyclopropylpiperidin-4-yl)-3-(2,2,2-trifluoroethoxy)-1H-pyrazol-4-yl)pyrimidin-2-amine] displayed an IC50 of less than 10 nM.
`C[C@@H](Cn1cnnn1)Oc1cc(-c2cnc(Nc3cn(CCNC(=O)OC(C)(C)C)nc3C(F)(F)F)nc2)ccc1Cl` [Example 845, tert-butyl (S)-(2-(4-((5-(3-((1-(1H-tetrazol-1-yl)propan-2-yl)oxy)-4-chlorophenyl)pyrimidin-2-yl)amino)-3-(trifluoromethyl)-1H-pyrazol-1-yl)ethyl)carbamate] yielded an IC50 of 10 to 100 nM.
On the same count and under the same terms, the figure for `C[C@@H](Cn1cnnn1)Oc1cc(-c2cnc(Nc3cn(CS(C)(=O)=O)nc3C(F)(F)F)nc2)ccc1Cl` [Example 848, (S)-5-(3-((1-(1H-tetrazol-1-yl)propan-2-yl)oxy)-4-chlorophenyl)-N-(1-((methylsulfonyl)methyl)-3-(trifluoromethyl)-1H-pyrazol-4-yl)pyrimidin-2-amine] is less than 10 nM.

Staying with this assay, now noted: Table 2; activity class for CaMKIIδ.
Consider `COc1ccc(N2CC(N3CCOCC3)C2)cc1Nc1ncc(-c2ccc(Cl)c(O[C@@H](C)Cn3cnnn3)c2)cn1` [Example 595, (S)-5-(3-((1-(1H-tetrazol-1-yl)propan-2-yl)oxy)-4-chlorophenyl)-N-(2-methoxy-5-(3-morpholinoazetidin-1-yl)phenyl)pyrimidin-2-amine], for which the IC50 fell in the range of 10 to 100 nM.
The compound `C[C@@H](Cn1cnnn1)Oc1cc(-c2cnc(Nc3cn(C4CCC(=O)CC4)nc3C(F)(F)F)nc2)ccc1Cl` [Example 680, (S)-4-(4-((5-(3-((1-(1H-tetrazol-1-yl)propan-2-yl)oxy)-4-chlorophenyl)pyrimidin-2-yl)amino)-3-(trifluoromethyl)-1H-pyrazol-1-yl)cyclohexan-1-one] yielded an IC50 of 10 to 100 nM.
`C[C@@H](Cn1cnnn1)Oc1cc(-c2cnc(Nc3cc(N4CC(N5CCOCC5)C4)ncc3OC(F)(F)F)nc2)ccc1Cl` [Example 627, (S)-5-(3-((1-(1H-tetrazol-1-yl)propan-2-yl)oxy)-4-chlorophenyl)-N-(2-(3-morpholinoazetidin-1-yl)-5-(trifluoromethoxy)pyridin-4-yl)pyrimidin-2-amine] gave an IC50 of 10 to 100 nM.
`C[C@@H](Cn1cnnn1)Oc1cc(-c2cnc(Nc3cn(CC4CN(Cc5ccccc5)CCO4)nc3C(F)(F)F)nc2)ccc1Cl` (stereo partly drawn) [Example 641, 5-(3-(((S)-1-(1H-tetrazol-1-yl)propan-2-yl)oxy)-4-chlorophenyl)-N-(1-((4-benzylmorpholin-2-yl)methyl)-3-(trifluoromethyl)-1H-pyrazol-4-yl)pyrimidin-2-amine] showed a half-inhibitory concentration (IC50) not below 100 nM.
The compound `CCn1cc(Nc2ncc(-c3ccc(Cl)c(O[C@@H](C)Cn4cnnn4)c3)cn2)c(OCC(F)(F)F)n1` [Example 700, (S)-5-(3-((1-(1H-tetrazol-1-yl)propan-2-yl)oxy)-4-chlorophenyl)-N-(1-ethyl-3-(2,2,2-trifluoroethoxy)-1H-pyrazol-4-yl)pyrimidin-2-amine] displayed a concentration for half-maximal inhibition (IC50) of less than 10 nM.
